{
  "source": "patent US8980845B2",
  "about": "“Biotechnological production of cyanophycin dipeptides” (Westfälische Wilhelms-Universität Münster, priority 2008, dated 2015)",
  "key": {"[1]": {"test_system": "Caco2 cells (human-colon epithelial adenocarcinoma cells)", "test": "Absorption of CGP dipeptides by Caco2-cell cultures", "conditions": "after 113 h of incubation; medium with 350 μg/ml CGP dipeptides (90% Asp-Arg: 10% Asp-Lys)", "method": "(§3) A Dulbecco's Modified Eagle Medium (DMEM) containing 20% Fetal Calf Serum (FCS) and 1% of 2 mM Glutamine solution was used as cultivation medium. About 7000 Caco2 cells per well were disseminated in a 24-well plate and incubated at 37° C. under an atmosphere of 5% CO2 and about 98% humidity. The cells were checked microscopically on a daily basis until forming monolayer after nearly 50 h. […] A well line was supplied with fresh 700 μl of the incubation medium without the latter additives and was considered as control. Samples were taken after incubation periods of 0, 13, 22, 67 and 113 h and were analyzed by HPLC as described by Sallam and Steinbüchel (J. App. Microbiol. DOI: 10.1111/j.1365-2672.2009.04221.x) to determine the change of concentrations of the tested dipeptides and amino acids."}, "[2]": {"test_system": "purified CphEal from P. alcaligenes strain DIP1", "test": "Effect of group-specific inhibitors on purified CphEal, HPLC analysis of CGP degradation products", "assay_type": "biochemical", "conditions": "for HPLC analysis (Inhibition %) high inhibitor concentration: high concentration (mM): Leupeptin 0.01, EDTA 60, Pefabloc 80, PMSF 10, NBS 5; for HPLC analysis (Inhibition %) high inhibitor concentration / HPLC analysis (Inhibition %) low inhibitor concentration: 2 h at 30° C., refers to control without inhibitor; for HPLC analysis (Inhibition %) low inhibitor concentration: low concentration (mM): Leupeptin 0.001, EDTA 30, Pefabloc 8, PMSF 1, NBS 1", "procedure": "(§1) To reveal the effect of enzyme inhibitors on the purified CphEal, 50 μl aliquots of the purified enzyme stalk solution were added to 450 μl of Na-phosphate buffer (50 mM) and incubated for 2 h at 30° C. in the presence of one of the following Group-specific inhibitors; Leupeptin (thiol-proteases), EDTA (metalloproteases), Pefabloc (serine-proteases), PMSF (serine-proteases) or N-bromosuccinimide (tryptophan residues).\n(§2) To gain information on the catalytic mechanism of CphEal, inhibitor experiments were conducted employing different group-specific inhibitors (Table 1)."}, "[3]": {"test_system": "purified CphEal from P. alcaligenes strain DIP1", "test": "Effect of group-specific inhibitors on purified CphEal, activity on CGP-overlay agar plates", "assay_type": "biochemical", "conditions": "for Inhibition of CphEal (in words): assayed on CGP-overlay agar plates and by HPLC analysis", "procedure": "as §1, §2"}, "[4]": {"test_system": "Caco2 cells (human-colon epithelial adenocarcinoma cells)", "conditions": "Caco-2, 113 h", "method": "as §3"}, "[5]": {"conditions": "low dose intravenous (IV) infusion; cited from earlier work"}, "[6]": {"conditions": "250 mg/kg/day oral for seven days, five healthy subjects aged 20 to 35; cited from earlier work"}, "[7]": {"test_system": "P. alcaligenes strain DIP1", "test": "Induction of CphEal production in cultures of strain DIP1", "assay_type": "cell-based", "method": "The activity of the cyanophycinase (CphEal) was inspected by formation of degradation halos on CGP-overlay agar plates by small aliquots of concentrated enzyme solutions, for this, 5 ml culture samples were centrifuged at 2800×g for 30 min (Megafuge 1.0 R, Heraeus Sepatech GmbH, Osterode, Germany) and 4 ml of the resulting supernatant were concentrated 100 folds by ultrafiltration. For the quantitative determination of the enzyme in culture samples, a photometric method was developed as follows; 2 μl of the concentrated culture supernatant were added to 1 ml of a CGP suspension (100 mg l^−1) and incubated at 30° C. for 30 min in a tube rotator (3 rpm, type 502 S, Watson-Marlow GmbH, Rommerskirchen, Germany). Finally, OD600 nm of samples was measured to indicate the decrease in CGP amount due to degradation; this in turn was used to indicate the concentration of CphEal in solutions through the respective calibration curve.\nTo conclude the optimum cultivation conditions for maximum production of CphEal by strain DIP1, cells were cultivated on different concentrations of citrate under optimum growth conditions, when cells reached the stationary phase; CphEal production was induced by the addition of 0.25 g CGP.\nDuring the following 5 h, supernatant samples were concentrated (100 folds) and screened for degradation activity on CGP-overlay agar plates as well as photometrically.\nAll inductors were tested first at a concentration of 0.25 g l^−1 and CphEal production was assayed on CGP-overlay agar plates and also photometrically."}, "CGP": {"test_system": "CGP", "conditions": "data from literature, cited from earlier work"}},
  "note": "Values joined by “and” are separate entries in the source; they are usually repeats but may differ in a detail not shown here. Equal values may be shown once. “Also recorded” adds a separate entry of the source. Read-outs that look alike come from different tables or passages of the source. Marks after values point to notes of the source that are not given here.",
  "data": [
    {"molecule": "NCCCC[C@H](NC(=O)C[C@H](N)C(=O)O)C(=O)O", "note": "[cyanophycin Asp-Lys dipeptides, β-aspartate-lysine]", "values": [
      {"measurement": "Absorption by Caco2 cells (HPLC analysis of the medium samples)", "setting": "[1]", "result": 68, "unit": "%"}
    ]},
    {"molecule": "O=C(O)CN(CCN(CC(=O)O)CC(=O)O)CC(=O)O", "note": "[EDTA]", "values": [
      {"measurement": "HPLC analysis of inhibitor-treated samples (in words)", "setting": "[2]", "result": "showed inhibition"},
      {"measurement": "HPLC analysis (Inhibition %) high inhibitor concentration", "setting": "[2]", "result": "75^c %"},
      {"measurement": "HPLC analysis (Inhibition %) low inhibitor concentration", "setting": "[2]", "result": "65^c %"},
      {"measurement": "Inhibition of the CGPase, HPLC analysis of samples treated with EDTA", "setting": "[2]; stated to be due to precipitates during OPA-derivatization", "result": "about 75%"},
      {"measurement": "Formation of degradation halos by CphEal on CGP-overlay agar plates in presence of inhibitor", "setting": "[3]", "result": "no activity inhibition; also recorded: not affected"}
    ]},
    {"molecule": "NCCCC[C@H](N)C(=O)O", "note": "[free L-lysine, L-lysine]", "values": [
      {"measurement": "Absorption by Caco2 cells (HPLC analysis of the medium samples)", "setting": "[4]", "result": 51, "unit": "%"}
    ]},
    {"molecule": "N=C(N)NCCC[C@H](N)C(=O)O", "note": "[free arginine, L-arginine]", "values": [
      {"measurement": "Absorption by Caco2 cells (HPLC analysis of the medium samples)", "setting": "[4]", "result": 41, "unit": "%"},
      {"measurement": "Serum GH levels", "setting": "[5]", "result": "significant increase"}
    ]},
    {"molecule": "L-Arginine-L-Aspartate [arginine aspartate]", "values": [
      {"measurement": "Rise in GH during slow wave sleep", "setting": "[6]", "result": 60, "unit": "%"}
    ]},
    {"molecule": "NC(N)=NCCC[C@H](NC(=O)C[C@H](N)C(=O)O)C(=O)O", "note": "[cyanophycin Asp-Arg dipeptides, β-aspartate-arginine]", "values": [
      {"measurement": "Absorption by Caco2 cells (HPLC analysis of the medium samples)", "setting": "[1]", "result": "approximately 60%"}
    ]},
    {"molecule": "O=S(=O)(F)Cc1ccccc1", "note": "[PMSF, Phenylmethylsulfonylfluoride]", "values": [
      {"measurement": "HPLC analysis (Inhibition %) high inhibitor concentration", "setting": "[2]", "result": 57, "unit": "%"},
      {"measurement": "HPLC analysis (Inhibition %) low inhibitor concentration", "setting": "[2]", "result": 0, "unit": "%"},
      {"measurement": "Inhibition of CphEal (in words)", "setting": "[3]", "result": "largely inhibited; also recorded: strongly inhibited"}
    ]},
    {"molecule": "O=C1CCC(=O)N1Br", "note": "[NBS, N-bromosuccinimide]", "values": [
      {"measurement": "HPLC analysis (Inhibition %) high inhibitor concentration", "setting": "[2]", "result": 100, "unit": "%"},
      {"measurement": "HPLC analysis (Inhibition %) low inhibitor concentration", "setting": "[2]", "result": 100, "unit": "%"},
      {"measurement": "Inhibition of CphEal (in words)", "setting": "[3]", "result": "totally inhibited; also recorded: total inhibition"}
    ]},
    {"molecule": "N[C@@H](CC(=O)O)C(=O)O", "note": "[L-aspartic acid]", "values": [
      {"measurement": "CphEal production after induction in comparison to cultures induced with optimum CGP concentration (0.05 g l^−1)", "setting": "[7]; 4 g l^−1 aspartate, 5 h", "result": "only the third"},
      {"measurement": "Time after induction at which maximum CphEal production was obtained", "setting": "[7]; at optimum inductor concentration", "result": 5, "unit": "h"},
      {"measurement": "Inductor concentration giving maximum CphEal production", "setting": "[7]; cultures of strain DIP1 under optimal production conditions", "result": 4, "unit": "g/L"},
      {"measurement": "Induction of CphEal production", "setting": "[7]; inductors tested at 0.25 g l^−1, CGP-overlay agar plates and photometrically", "result": "induced significant amounts"}
    ]},
    {"molecule": "CC(=O)N[C@@H](CC(C)C)C(=O)N[C@@H](CC(C)C)C(=O)N[C@H](C=O)CCCNC(=N)N", "note": "[Leupeptin]", "values": [
      {"measurement": "HPLC analysis (Inhibition %) high inhibitor concentration", "setting": "[2]", "result": 39, "unit": "%"},
      {"measurement": "HPLC analysis (Inhibition %) low inhibitor concentration", "setting": "[2]", "result": 10, "unit": "%"},
      {"measurement": "Formation of degradation halos by CphEal on CGP-overlay agar plates in presence of inhibitor", "setting": "[3]", "result": "no activity inhibition"},
      {"measurement": "Formation of degradation halos by CphEal on CGP-overlay agar plates in presence of inhibitor", "setting": "[3]; listed as leupeptin", "result": "not affected"}
    ]},
    {"molecule": "Cl.NCCc1ccc(S(=O)(=O)F)cc1", "note": "[Pefabloc ®, 4-(2-aminoethyl) benzensulfonylfluoride•HCl]", "values": [
      {"measurement": "HPLC analysis (Inhibition %) high inhibitor concentration", "setting": "[2]", "result": 100, "unit": "%"},
      {"measurement": "HPLC analysis (Inhibition %) low inhibitor concentration", "setting": "[2]", "result": 91, "unit": "%"},
      {"measurement": "Inhibition of CphEal (in words)", "setting": "[3]; listed as Pefabloc", "result": "strongly inhibited"},
      {"measurement": "Inhibition of CphEal (in words)", "setting": "[3]; listed as Pefabloc®", "result": "largely inhibited"}
    ]},
    {"molecule": "CphB: intracellular cyanophycinase of Synechocystis sp. PCC 6803 (protein, UniProt P73832 2-271, looked up) Cyanophycinase: PLSSQPAILIIGGAEDKVHGREILQTFWSRSGGNDAIIGIIPSASREPLLIGERYQTIFSDMGVKELKVLDIRDRAQGDDSGYRLFVEQCTGIFMTGGDQLRLCGLLADTPLMDRIRQRVHNGEISLAGTSAGAAVMGHHMIAGGSSGEWPNRALVDMAVGLGIVPEIVVDQHFHNRNRMARLLSAISTHPELLGLGIDEDTCAMFERDGSVKVIGQGTVSFVDARDMSYTNAALVGANAPLSLHNLRLNILVHGEVYHQVKQRAFPRVT", "values": [
      {"measurement": "Mechanism", "setting": "CGP; cell wrapped: Exo-peptidase", "result": "Exo-"},
      {"measurement": "CGP degradation products", "setting": "CGP", "result": "β-Asp-Arg"},
      {"measurement": "Inhibitors", "setting": "CGP", "result": "PMSF, and 3,4-dichloro- and Pefabloc ®,"},
      {"measurement": "Optimum pH range", "setting": "CGP", "result": "7-8^"},
      {"measurement": "Optimum temperature", "setting": "CGP", "result": 35, "unit": "°C"}
    ]}
  ]
}
